How the values were obtained:
[1] = 101.3 kPa, Liquid mixture 1
[2] = xn = mol fraction of the nth substance listed; conditions: for surface tension liquid-gas: Pendant drop shape; for mass density: Liquid

CN1CCCC1=O [N-methylpyrrolidone] + CCCCCCC
[1]
Conditions | interfacial tension [mN/m]
297.76 K | 1.202
302.78 K | 0.93
307.81 K | 0.68
312.84 K | 0.45
317.79 K | 0.24
320.65 K | 0.137
322.8 K | 0.079
323.75 K | 0.055
324.8 K | 0.033
325.43 K | 0.019
325.81 K | 0.012
326.1 K | 0.009

CC(C)=O [acetone] + C1CCCCC1
[2]
Conditions | mass density, 288.15 K [kg/m3] | mass density, 298.15 K [kg/m3] | mass density, 308.15 K [kg/m3] | mass density, 318.15 K [kg/m3] | surface tension liquid-gas, 287.81 K [mN/m] | surface tension liquid-gas, 297.82 K [mN/m] | surface tension liquid-gas, 307.86 K [mN/m] | surface tension liquid-gas, 317.86 K [mN/m]
x2 = 0 | 798.2 | 787 | 775.4 | 762.5 | 23.94 | 22.78 | 21.59 | 20.33
x2 = 0.1002 | 790 | 779.7 | 768.4 | 756.9 | 23.54 | 22.25 | 21.03 | 19.91
x2 = 0.2001 | 786.6 | 775.3 | 764.2 | 753 | 23.19 | 22.02 | 20.78 | 19.63
x2 = 0.2993 | 783.2 | 772.3 | 761.4 | 750.2 | 23.23 | 22.02 | 20.82 | 19.63
x2 = 0.3979 | 781.1 | 769.7 | 759.6 | 748.6 | 23.33 | 22.08 | 20.89 | 19.7
x2 = 0.4964 | 779.7 | 769.2 | 758.6 | 747.8 | 23.58 | 22.22 | 21.14 | 20
x2 = 0.6 | 778.9 | 768.6 | 758.2 | 747.6 | 23.91 | 22.53 | 21.35 | 20.3
x2 = 0.6975 | 778.9 | 768.7 | 759.9 | 748.3 | 24.31 | 22.84 | 21.6 | 20.56
x2 = 0.7993 | 779.4 | 769.5 | 759.6 | 749.6 | 24.69 | 23.24 | 22.08 | 21.04
x2 = 0.8994 | 780.7 | 771.1 | 761.4 | 751.6 | 25.12 | 23.82 | 22.58 | 21.46

C1CCCCC1 [cyclohexane] + CC(C)=O
[2], x1 = 1
Conditions | mass density [kg/m3] | surface tension liquid-gas [mN/m]
287.81 K | – | 25.34
288.15 K | 783.2 | –
297.82 K | – | 24.2
298.15 K | 773.9 | –
307.86 K | – | 23.02
308.15 K | 764.4 | –
317.86 K | – | 21.84
318.15 K | 754.8 | –

CCCCCCCCCC [decane] + CN(C)C=O
[1]
Conditions | interfacial tension [mN/m]
292.78 K | 3.78
297.77 K | 3.41
302.79 K | 3.1
307.81 K | 2.72
312.79 K | 2.4
317.8 K | 2.09
322.78 K | 1.82
327.81 K | 1.53
332.81 K | 1.24
337.76 K | 0.95
342.78 K | 0.69
346.8 K | 0.48
348.32 K | 0.37
350.11 K | 0.32
352.77 K | 0.19
353.65 K | 0.15
354.76 K | 0.105
355.31 K | 0.083
355.62 K | 0.07
356.15 K | 0.056
356.72 K | 0.035
357.15 K | 0.019
357.45 K | 0.012

CN(C)C=O [dimethylformamide] + CCCCCCC
[1]
Conditions | interfacial tension [mN/m]
297.83 K | 2.49
302.83 K | 2.19
307.85 K | 1.87
312.85 K | 1.59
317.86 K | 1.26
322.86 K | 0.93
327.88 K | 0.66
332.88 K | 0.42
334.87 K | 0.302
336.86 K | 0.213
337.88 K | 0.169
338.88 K | 0.122
339.87 K | 0.086
340.87 K | 0.042
341.25 K | 0.032
341.88 K | 0.02
342.18 K | 0.011

CCCCCCC [heptane] + C1CCCCC1
[2], x2 = 0
Conditions | mass density [kg/m3] | surface tension liquid-gas [mN/m]
283.15 K | 692.2 | –
287.81 K | – | 20.7
288.15 K | 688 | –
293.15 K | 683.8 | –
297.82 K | – | 19.63
298.15 K | 679.5 | –
303.15 K | 675.2 | –
307.86 K | – | 18.68
308.15 K | 670.9 | –
313.15 K | 666.5 | –
317.86 K | – | 17.76
318.15 K | 662.1 | –
323.15 K | 657.7 | –
327.88 K | – | 16.68
328.15 K | 653.2 | –
333.15 K | 648.7 | –

Cc1ccccc1 [toluene] + CC(C)=O
[2], x1 = 1
Conditions | mass density [kg/m3] | surface tension liquid-gas [mN/m]
283.15 K | 875.9 | –
287.81 K | – | 28.93
288.15 K | 871.4 | –
293.15 K | 866.9 | –
297.82 K | – | 27.76
298.15 K | 862.4 | –
303.15 K | 857.8 | –
307.86 K | – | 26.6
308.15 K | 853.2 | –
313.15 K | 848.6 | –
317.86 K | – | 25.46
318.15 K | 843.9 | –
323.15 K | 839.2 | –
327.88 K | – | 24.29
328.15 K | 834.5 | –
333.15 K | 829.8 | –

— the NIST ThermoML archive (doi:10.1021/je034062r)
